Results as given in paper PMC4891657, “Orexin 2 Receptor Antagonism is Sufficient to Promote NREM and REM Sleep from Mouse to Man” (Scientific Reports, 2016).

Legend:
hOX1R = biological target: T1, hOX1R (Homo sapiens, UniProt O43613); assay: Inhibition of orexin-peptide-A-induced calcium mobilization in CHO cells, human OX1R; type: cell-based
T1 construct: expressed in transfected cells; host or cells: CHO-K1
T1 sequence (O43613 1-425): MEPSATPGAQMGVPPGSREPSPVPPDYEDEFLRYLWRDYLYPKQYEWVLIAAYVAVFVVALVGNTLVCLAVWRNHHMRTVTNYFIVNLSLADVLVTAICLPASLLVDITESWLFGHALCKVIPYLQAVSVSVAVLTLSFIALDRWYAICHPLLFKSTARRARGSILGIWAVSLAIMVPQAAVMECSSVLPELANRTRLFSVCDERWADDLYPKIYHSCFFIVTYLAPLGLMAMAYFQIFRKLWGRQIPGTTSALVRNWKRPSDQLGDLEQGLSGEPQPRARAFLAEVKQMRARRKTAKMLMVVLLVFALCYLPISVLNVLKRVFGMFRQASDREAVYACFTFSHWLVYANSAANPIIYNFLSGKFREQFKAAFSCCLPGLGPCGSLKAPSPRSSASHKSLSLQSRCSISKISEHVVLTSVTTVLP
Method: (§1) MK-1064 was evaluated for its ability to inhibit orexin-peptide-A-induced calcium mobilization in CHO cell lines separately expressing OX1R and OX2R from mice, rats, rabbits, dogs, rhesus monkeys and humans.
(§2) Binding and functional blockade of OX1R and OX2R with MK-1064 relative to other 2-SORAs and the DORA, MK-6096, were assessed using membranes from Chinese hamster ovary (CHO)-K1 cells (American Type Tissue Collection, Manassas, VA) transfected to express human, mouse, rat, rabbit, dog, or rhesus monkey OX1R or OX2R receptors, as described previously. The kinetics of binding to human OX2R was assessed by radioligand displacement on CHO-K1 cells expressing the receptor. […] The ON rate analysis was performed by presoaking GF/B filters in 0.3% polyethyleneimine (Sigma) using a Skatron 12-well cell harvester and cold buffer at the indicated time points after addition. For OFF rate determination, binding reactions were allowed to proceed to equilibrium and terminated with 1000x [Kd] of unlabeled antagonist and filtered as above at pre-determined time points. Ultima Gold^TM (PerkinElmer 6013327) scintillation cocktail was added to each filter disc and counted on a PerkinElmer TriCarb 2910 scintillation counter. Data were analyzed using GraphPad® Prism v 6.04 (San Diego, CA, USA). The KON rate was determined according to the equation, KON = (KOBS − KOFF)/[ligand].

OX1R [1] = biological target: T2, OX1R (Oryctolagus cuniculus, UniProt G1SPJ3); assay: Radio-ligand displacement binding, CHO-K1 membranes, rabbit OX1R; conditions: read-out: OX1R affinity (Ki)
T2 sequence (G1SPJ3 1-416): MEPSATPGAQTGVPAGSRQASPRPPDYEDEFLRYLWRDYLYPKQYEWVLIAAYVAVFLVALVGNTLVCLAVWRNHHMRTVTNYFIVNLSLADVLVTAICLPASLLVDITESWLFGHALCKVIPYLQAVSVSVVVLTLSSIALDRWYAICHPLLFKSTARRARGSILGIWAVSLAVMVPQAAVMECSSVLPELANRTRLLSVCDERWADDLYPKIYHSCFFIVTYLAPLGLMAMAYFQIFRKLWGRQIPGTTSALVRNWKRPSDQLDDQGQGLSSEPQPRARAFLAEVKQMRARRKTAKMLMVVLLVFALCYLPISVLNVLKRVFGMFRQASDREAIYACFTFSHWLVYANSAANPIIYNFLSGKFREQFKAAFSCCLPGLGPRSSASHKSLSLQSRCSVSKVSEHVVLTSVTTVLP
Method: as §1, §2

OX1R [2] = biological target: T3, OX1R (Rattus norvegicus, UniProt P56718); assay: Radio-ligand displacement binding, CHO-K1 membranes, rat OX1R; conditions: read-out: OX1R affinity (Ki)
T3 construct: expressed in transfected cells; host or cells: CHO-K1
T3 sequence (P56718 1-416): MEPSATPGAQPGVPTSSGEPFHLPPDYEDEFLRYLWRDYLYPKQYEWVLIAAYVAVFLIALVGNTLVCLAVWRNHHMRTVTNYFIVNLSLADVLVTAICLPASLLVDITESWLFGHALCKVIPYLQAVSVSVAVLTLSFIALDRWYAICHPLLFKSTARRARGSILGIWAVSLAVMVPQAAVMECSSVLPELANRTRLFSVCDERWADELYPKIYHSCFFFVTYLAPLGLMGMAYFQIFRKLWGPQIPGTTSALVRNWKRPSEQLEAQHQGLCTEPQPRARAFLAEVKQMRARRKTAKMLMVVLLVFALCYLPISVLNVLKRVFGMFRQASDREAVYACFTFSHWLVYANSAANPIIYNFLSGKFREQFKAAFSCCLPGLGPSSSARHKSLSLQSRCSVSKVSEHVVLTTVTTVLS
Method: as §1, §2

OX2R [3] = biological target: T4, OX2R (Rattus norvegicus, UniProt P56719); assay: Radio-ligand displacement binding, CHO-K1 membranes, rat OX2R; conditions: for fold OX2R selectivity (Ki): OX1R Ki / OX2R Ki; for Ki: read-out: OX2R affinity (Ki)
T4 construct: expressed in transfected cells; host or cells: CHO-K1
T4 sequence (P56719 1-460): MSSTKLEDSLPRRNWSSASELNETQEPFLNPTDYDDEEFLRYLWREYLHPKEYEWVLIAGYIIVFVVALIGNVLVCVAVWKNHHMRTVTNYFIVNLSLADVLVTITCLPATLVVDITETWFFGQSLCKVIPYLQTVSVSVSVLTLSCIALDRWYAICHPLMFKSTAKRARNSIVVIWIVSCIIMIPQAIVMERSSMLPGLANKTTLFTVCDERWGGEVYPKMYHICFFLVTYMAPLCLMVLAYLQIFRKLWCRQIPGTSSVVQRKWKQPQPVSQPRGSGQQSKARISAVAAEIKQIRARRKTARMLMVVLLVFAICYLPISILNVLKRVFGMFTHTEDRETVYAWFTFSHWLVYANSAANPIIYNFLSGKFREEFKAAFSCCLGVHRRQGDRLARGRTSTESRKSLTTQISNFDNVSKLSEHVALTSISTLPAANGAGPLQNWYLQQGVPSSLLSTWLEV
Method: as §1, §2

OX2R [4] = biological target: T5, OX2R (Canis lupus familiaris, UniProt Q9TUP7); assay: Radio-ligand displacement binding, CHO-K1 membranes, dog OX2R; conditions: for fold OX2R selectivity (Ki): OX1R Ki / OX2R Ki; for Ki: read-out: OX2R affinity (Ki)
T5 construct: expressed in transfected cells; host or cells: CHO-K1
T5 sequence (Q9TUP7 1-444): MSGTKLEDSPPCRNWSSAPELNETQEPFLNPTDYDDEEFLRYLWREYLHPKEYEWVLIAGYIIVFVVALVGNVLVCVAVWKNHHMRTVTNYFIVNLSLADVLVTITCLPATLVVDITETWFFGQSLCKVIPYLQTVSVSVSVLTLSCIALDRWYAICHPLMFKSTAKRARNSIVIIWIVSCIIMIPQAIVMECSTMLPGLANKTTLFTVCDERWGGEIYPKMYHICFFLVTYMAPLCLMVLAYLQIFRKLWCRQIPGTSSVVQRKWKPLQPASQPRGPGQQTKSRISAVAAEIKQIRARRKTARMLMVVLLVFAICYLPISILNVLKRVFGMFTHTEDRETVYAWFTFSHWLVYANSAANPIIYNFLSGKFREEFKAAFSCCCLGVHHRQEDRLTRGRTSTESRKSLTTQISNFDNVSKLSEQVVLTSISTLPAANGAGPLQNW
Method: as §1, §2

Row | Compound | Kb (hOX1R) | Ki (OX1R [1]) | Ki (OX1R [2]) | fold OX2R selectivity (Ki) (OX2R [3]) | Ki (OX2R [3]) | fold OX2R selectivity (Ki) (OX2R [4]) | Ki (OX2R [4])
1 | COc1ccc(CNC(=O)c2cc(-c3cncc(C)c3)ncc2-c2ccccc2)nc1OC [2-SORA-7] | 4360 nM | 4390 nM | 2610 nM | [11877] fold | 0.22 nM | [2857] fold | 0.63 nM
2 | COc1ccc(CNC(=O)c2cc(-c3cc(Cl)cc(Cl)c3)cnc2-c2cccnc2)cc1OC [2-SORA-18] | 161 nM | 241 nM | 94 nM | [522] fold | 0.18 nM | [782] fold | 0.11 nM
3 | COc1ccc(CNC(=O)c2cc(-c3cncc(Cl)c3)cnc2-c2ccccn2)nc1OC [MK-1064, 5″-chloro-N-[(5,6-dimethoxypyridin-2-yl)methyl]-2,2′:5′, 3″-terpyridine-3′-carbo xamide] | 1870 nM | 2440 nM | 1070 nM | [1288] fold | 0.83 nM | [1667] fold | 0.78 nM
4 | COc1ccc(CNC(=O)c2cc(-c3cncc(C)c3)ncc2-c2nccs2)nc1OC [MK-3697] | – | 4740 nM | 2390 nM | – | 1.93 nM | – | 1.1 nM
5 | Cc1ccc(-c2ncccn2)c(C(=O)N2C[C@H](COc3ccc(F)cn3)CC[C@H]2C)c1 [MK-6096] | 11 nM | 2.6 nM | 2.5 nM | [11.4] fold | 0.22 nM | [7.5] fold | 0.36 nM
